Target: T1, chimeric human H3 receptor (Homo sapiens, UniProt Q9Y5N1)
T1 construct: made in house; host or cells: Sf9 insect cells (baculovirus); P2 membrane preparation
Assay: Chimeric human H3 receptor GTP binding assay (agonist-stimulated GTP-gamma35S binding, Example 7)
Type: biochemical
How it was run: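 Sf9 membranes co-expressing chimeric human H3 receptor and heterotrimeric G-protein, 35 μg/tube, in pH 7.4 Tris buffer with 10 μM GDP. Test compounds (10^−10–10^−6 M) competed against 1 μM histamine, […] GTP-gamma35S, 60 min at room temperature. Filter-bound radioactivity counted; IC50 converted to Ki by Cheng-Prusoff. Agonism/inverse agonism tested without histamine (EC50).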

[1] = Table II, "*" = Ki in assay of Example 7 less than 1 micromolar
[2] = Table II "Ki", symbol *, assay of Example 7
[3] = assay of Example 7, "*" in Ki of Table II
[4] = Table I, P2 membranes of Sf9 cells, 1 μM histamine as agonist, Ki from IC50 by Cheng-Prusoff

T1 sequence (Q9Y5N1 with tags, fused parts or gaps): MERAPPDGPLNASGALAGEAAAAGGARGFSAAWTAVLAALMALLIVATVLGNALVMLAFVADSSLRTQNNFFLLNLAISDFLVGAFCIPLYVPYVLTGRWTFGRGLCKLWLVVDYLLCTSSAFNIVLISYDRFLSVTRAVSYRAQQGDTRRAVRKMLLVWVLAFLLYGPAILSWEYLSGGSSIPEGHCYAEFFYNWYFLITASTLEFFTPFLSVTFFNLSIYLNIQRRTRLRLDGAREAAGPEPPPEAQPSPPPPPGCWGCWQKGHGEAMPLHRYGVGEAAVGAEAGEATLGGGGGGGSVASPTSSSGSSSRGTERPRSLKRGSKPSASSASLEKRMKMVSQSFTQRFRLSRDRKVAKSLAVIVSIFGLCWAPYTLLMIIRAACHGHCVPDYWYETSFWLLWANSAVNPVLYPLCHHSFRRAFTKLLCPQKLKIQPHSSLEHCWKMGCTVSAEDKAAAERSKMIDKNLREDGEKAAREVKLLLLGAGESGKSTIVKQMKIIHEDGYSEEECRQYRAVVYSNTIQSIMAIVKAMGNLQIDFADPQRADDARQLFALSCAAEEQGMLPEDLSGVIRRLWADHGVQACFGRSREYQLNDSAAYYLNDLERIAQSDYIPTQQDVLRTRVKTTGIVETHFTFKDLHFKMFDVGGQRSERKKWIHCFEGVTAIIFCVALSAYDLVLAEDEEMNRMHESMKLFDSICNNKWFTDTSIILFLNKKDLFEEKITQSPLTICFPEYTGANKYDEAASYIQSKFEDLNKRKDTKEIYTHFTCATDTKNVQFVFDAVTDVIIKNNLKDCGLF

| Ki [1] [nM] | Ki [3] [nM] | SMILES | also measured |
| --- | --- | --- | --- |
| < 1000 |  | COc1ncc(-n2ncc3c2CCN(CC(=O)N2CCN(C4CCC4)CC2)C3)cn1 [Compound 257, 5-[2-(4-cyclobutylpiperazin-1-yl)-2-oxoethyl]-1-(2-methoxypyrimidin-5-yl)-4,5,6,7-tetrahydro-1H-pyrazolo[4,3-c]pyridine] |  |
|  |  | COc1ccc(-c2ccc3c(c2)CCN(CC(=O)N2CCN(C4CCCC4)CC2)C3)cc1F [Compound 503, 2-[2-(4-cyclopentylpiperazin-1-yl)-2-oxoethyl]-6-(3-fluoro-4-methoxyphenyl)-1,2,3,4-tetrahydroisoquinoline] | Ki [2]: < 1000 nM |
| < 1000 |  | N#Cc1cnn(-c2ccc3c(c2)CCN(CC(=O)N2CCN(C4CCC4)CC2)C3)c1 [Compound 244, 1-{2-[2-(4-cyclobutylpiperazin-1-yl)-2-oxoethyl]-1,2,3,4-tetrahydroisoquinolin-6-yl}-1H-pyrazole-4-carbonitrile] |  |
|  | < 1000 | O=C(CN1CCc2c(cnn2-c2cccnn2)C1)N1CCN(C2CCC2)CC1 [Compound 285, 5-[2-(4-cyclobutylpiperazin-1-yl)-2-oxoethyl]-1-pyridazin-3-yl-4,5,6,7-tetrahydro-1H-pyrazolo[4,3-c]pyridine] |  |
| < 1000 |  | O=C(CN1CCc2c(cnn2-c2cncnc2)C1)N1CCN(C2CCC2)CC1 [Compound 251, 5-[2-(4-cyclobutylpiperazin-1-yl)-2-oxoethyl]-1-pyrimidin-5-yl-4,5,6,7-tetrahydro-1H-pyrazolo[4,3-c]pyridine] |  |
| < 1000 |  | CCn1cc(-c2ccc3c(c2)CCN(CC(=O)N2CCN(C4CCC4)CC2)C3)ccc1=O [Compound 280, 5-{2-[2-(4-cyclobutylpiperazin-1-yl)-2-oxoethyl]-1,2,3,4-tetrahydroisoquinolin-6-yl}-1-ethylpyridin-2(1H)-one] |  |
|  | < 1000 | O=C(CN1CCc2nc(-c3ccccc3C(F)(F)F)sc2C1)N1CCN(C2CCC2)CC1 [Compound 360, 5-[2-(4-cyclobutylpiperazin-1-yl)-2-oxoethyl]-2-[2-(trifluoromethyl)phenyl]-4,5,6,7-tetrahydro[1,3]thiazolo [5,4-c]pyridine] |  |
| < 1000 |  | O=C(CN1CCc2cc(-n3ccc(C(F)(F)F)n3)ccc2C1)N1CCN(C2CCC2)CC1 [Compound 157, 2-[2-(4-cyclobutylpiperazin-1-yl)-2-oxoethyl]-6-[3-(trifluoromethyl)-1H-pyrazol-1-yl]-1,2,3,4-tetrahydroisoquinoline] |  |
| < 1000 |  | CC(=O)c1ccc2c(c1)CCN(CC(=O)N1CCN(C3CCC3)CC1)CC2 [Compound 101, 1-{3-[2-(4-cyclobutylpiperazin-1-yl)-2-oxoethyl]-2,3,4,5-tetrahydro-1H-3-benzazepin-7-yl}ethanone] |  |
|  |  | O=C(CN1CCc2cncnc2CC1)N1CCN(C2CCC2)CC1 [Compound 80, 7-[2-(4-cyclobutylpiperazin-1-yl)-2-oxoethyl]-6,7,8,9-tetrahydro-5H-pyrimido[4,5-d]azepine] | Ki [4]: < 1000 nM |
| < 1000 |  | O=C(CN1CCc2cc(O)ccc2C1)N1CCN(C2CCC2)CC1 [Compound 195, 2-[2-(4-cyclobutylpiperazin-1-yl)-2-oxoethyl]-1,2,3,4-tetrahydroisoquinolin-6-ol] |  |
| < 1000 |  | O=C(CN1CCc2cc(-c3ccccn3)ccc2C1)N1CCN(C2CCC2)CC1 [Compound 130, 2-[2-(4-cyclobutylpiperazin-1-yl)-2-oxoethyl]-6-pyridin-2-yl-1,2,3,4-tetrahydroisoquinoline] |  |
| < 1000 |  | Cc1ccc(-n2cc3c(n2)CN(CC(=O)N2CCN(C4CCC4)CC2)CC3)nn1 [Compound 264, 6-[2-(4-cyclobutylpiperazin-1-yl)-2-oxoethyl]-2-(6-methylpyridazin-3-yl)-4,5,6,7-tetrahydro-2H-pyrazolo[3,4-c]pyridine] |  |
|  | < 1000 | O=C(CN1CCc2nc(-c3ccccc3F)sc2C1)N1CCN(C2CCC2)CC1 [Compound 299, 5-[2-(4-cyclobutylpiperazin-1-yl)-2-oxoethyl]-2-(2-fluorophenyl)-4,5,6,7-tetrahydro[1,3]thiazolo [5,4-c]pyridine] |  |
|  | < 1000 | CC(=O)c1cccc(-c2nc3c(s2)CN(CC(=O)N2CCN(C4CCC4)CC2)CC3)c1 [Compound 370, 1-(3-{5-[2-(4-cyclobutylpiperazin-1-yl)-2-oxoethyl]-4,5,6,7-tetrahydro[1,3]thiazolo [5,4-c]pyridin-2-yl}phenyl)ethanone] |  |
|  |  | CCOc1ccc(-c2ccc3c(c2)CCN(CC(=O)N2CCN(C4CCCC4)CC2)C3)cc1 [Compound 529, 2-[2-(4-cyclopentylpiperazin-1-yl)-2-oxoethyl]-6-(4-ethoxyphenyl)-1,2,3,4-tetrahydroisoquinoline] | Ki [2]: < 1000 nM |
|  | < 1000 | COc1ccc(-c2nc3c(s2)CN(CC(=O)N2CCN(C4CCC4)CC2)CC3)c(OC)c1 [Compound 340, 5-[2-(4-cyclobutylpiperazin-1-yl)-2-oxoethyl]-2-(2,4-dimethoxyphenyl)-4,5,6,7-tetrahydro[1,3]thiazolo [5,4-c]pyridine] |  |

| Ki [1] [nM] | Ki [3] [nM] | SMILES | also measured |
| --- | --- | --- | --- |
| < 1000 |  | O=C(CN1CCc2nc(Br)sc2C1)N1CCN(C2CCC2)CC1 [Compound 97, 2-bromo-5-[2-(4-cyclobutylpiperazin-1-yl)-2-oxoethyl]-4,5,6,7-tetrahydro[1,3]thiazolo [5,4-c]pyridine] |  |
| < 1000 |  | O=C(CN1CCc2nc(-n3cccn3)ncc2C1)N1CCN(C2CCC2)CC1 [Compound 275, 6-[2-(4-cyclobutylpiperazin-1-yl)-2-oxoethyl]-2-(1H-pyrazol-1-yl)-5,6,7,8-tetrahydropyrido[4,3-d]pyrimidine] |  |
| < 1000 |  | CC1CN(c2ccc3c(n2)CCN(CC(=O)N2CCN(C4CCC4)CC2)C3)CC(C)O1 (stereo not shown) [Compound 182, 6-[2-(4-cyclobutylpiperazin-1-yl)-2-oxoethyl]-2-(2,6-dimethylmorpholin-4-yl)-5,6,7,8-tetrahydro-1,6-naphthyridine] |  |
| < 1000 |  | CC1CCCC2CN(C(=O)CN3CCc4cc(-c5cccnn5)ccc4C3)CCN12 (stereo not shown) [Compound 165, 6-methyl-2-[(6-pyridazin-3-yl-3,4-dihydroisoquinolin-2(1H)-yl)acetyl]octahydro-2H-pyrido[1,2-a]pyrazine] |  |
|  | < 1000 | O=C(CN1CCc2nc(-c3cc(F)cc(F)c3)sc2C1)N1CCN(C2CCC2)CC1 [Compound 355, 5-[2-(4-cyclobutylpiperazin-1-yl)-2-oxoethyl]-2-(3,5-difluorophenyl)-4,5,6,7-tetrahydro[1,3]thiazolo [5,4-c]pyridine] |  |
| < 1000 |  | CC(O)c1ccc2c(c1)CCN(CC(=O)N1CCN(C3CCC3)CC1)C2 (stereo not shown) [Compound 219, 1-{2-[2-(4-cyclobutylpiperazin-1-yl)-2-oxoethyl]-1,2,3,4-tetrahydroisoquinolin-6-yl}ethanol] |  |
|  | < 1000 | CC(C)N1CCN(C(=O)CN2CCc3cc(-c4ccc(S(C)(=O)=O)cc4)ccc3C2)CC1 [Compound 382, 2-[2-(4-isopropylpiperazin-1-yl)-2-oxoethyl]-6-[4-(methylsulfonyl)phenyl]-1,2,3,4-tetrahydroisoquinoline] |  |
|  | < 1000 | O=C(CN1CCc2nc(-c3ccc(Cl)c(Cl)c3)sc2C1)N1CCN(C2CCC2)CC1 [Compound 354, 5-[2-(4-cyclobutylpiperazin-1-yl)-2-oxoethyl]-2-(3,4-dichlorophenyl)-4,5,6,7-tetrahydro[1,3]thiazolo [5,4-c]pyridine] |  |
|  |  | O=C(CN1CCc2cc(Br)ccc2C1c1ccccc1Cl)N1CCN(C2CCC2)CC1 (stereo not shown) [Compound 63, 6-bromo-1-(2-chlorophenyl)-2-[2-(4-cyclobutylpiperazin-1-yl)-2-oxoethyl]-1,2,3,4-tetrahydroisoquinoline] | Ki [4]: < 1000 nM |
| < 1000 |  | O=C(CN1CCc2sc(-c3cncnc3)cc2C1)N1CCN(C2CCC2)CC1 [Compound 269, 5-[2-(4-cyclobutylpiperazin-1-yl)-2-oxoethyl]-2-pyrimidin-5-yl-4,5,6,7-tetrahydrothieno[3,2-c]pyridine] |  |
| < 1000 |  | N#Cc1cncc(-n2cc3c(n2)CCN(CC(=O)N2CCN(C4CCC4)CC2)C3)n1 [Compound 271, 6-{5-[2-(4-cyclobutylpiperazin-1-yl)-2-oxoethyl]-4,5,6,7-tetrahydro-2H-pyrazolo[4,3-c]pyridin-2-yl}pyrazine-2-carbonitrile] |  |
|  | < 1000 | Cc1ccc(-n2ncc3c2CN(CC(=O)N2CCN(C4CCC4)CC2)CC3)nn1 [Compound 284, 6-[2-(4-cyclobutylpiperazin-1-yl)-2-oxoethyl]-1-(6-methylpyridazin-3-yl)-4,5,6,7-tetrahydro-1H-pyrazolo[3,4-c]pyridine] |  |
| < 1000 |  | CC1CN(C(=O)CN2CCc3nc(C(=O)NC4CCC4)ccc3C2)CCN1C1CCC1 (stereo not shown) [Compound 126, N-cyclobutyl-6-[2-(4-cyclobutyl-3-methylpiperazin-1-yl)-2-oxoethyl)-5,6,7,8-tetrahydro-1,6-naphthyridine-2-carboxamide] |  |
|  | < 1000 | O=C(CN1CCc2nc(-c3cc(C(F)(F)F)cc(C(F)(F)F)c3)sc2C1)N1CCN(C2CCC2)CC1 [Compound 371, 2-[3,5-bis(trifluoromethyl)phenyl]-5-[2-(4-cyclobutylpiperazin-1-yl)-2-oxoethyl]-4,5,6,7-tetrahydro[1,3]thiazolo [5,4-c]pyridine] |  |
| < 1000 |  | O=C(CN1CCc2nc(N3CCOCC3)cnc2C1)N1CCN(C2CCC2)CC1 [Compound 240, 6-[2-(4-cyclobutylpiperazin-1-yl)-2-oxoethyl]-2-morpholin-4-yl-5,6,7,8-tetrahydropyrido[3,4-b]pyrazine] |  |
|  |  | CC(C)N1CCN(C(=O)CN2CCc3ccccc3C2c2ccccc2F)CC1 (stereo not shown) [Compound 58, 1-(2-fluorophenyl)-2-[2-(4-isopropylpiperazin-1-yl)-2-oxoethyl]-1,2,3,4-tetrahydroisoquinoline] | Ki [4]: < 1000 nM |
|  | < 1000 | COc1ccc(-c2ccc3c(c2)CCN(CC(=O)N2CCN(C4CCCC4)CC2)C3)cn1 [Compound 391, 2-[2-(4-cyclopentylpiperazin-1-yl)-2-oxoethyl]-6-(6-methoxypyridin-3-yl)-1,2,3,4-tetrahydroisoquinoline] |  |

— patent publication US20110082130A1 (LIGAND PHARMACEUTICALS, INC., priority 2006, published 2011)
